As a reminder, the IC50 is the concentration that gives 50% inhibition.

Like-named read-outs stand apart in the source and are kept apart here.

Type in all cases: biochemical
Assay [1] concerns the target T1, WNV NS2B/NS3pro (West Nile virus, UniProt Q9Q6P4). As to conditions: read-out: IC50 (μM) a; tri-peptide substrate Boc-GKR-AMC, inhibitor 0–40 μM.
The target in assay [2] is T1, WNV NS2B/NS3pro. Conditions: read-out: IC50 (μM) b; tetra-peptide substrate Bz-Nle-KRR-AMC.
For assay [3], the target named is T1, WNV NS2B/NS3pro. The assay is described as follows: In vitro protease assay, percent inhibition at a fixed inhibitor concentration. Conditions: aprotinin as positive control, final concentration 2–10 μM.

T1 sequence (Q9Q6P4 1506-1683): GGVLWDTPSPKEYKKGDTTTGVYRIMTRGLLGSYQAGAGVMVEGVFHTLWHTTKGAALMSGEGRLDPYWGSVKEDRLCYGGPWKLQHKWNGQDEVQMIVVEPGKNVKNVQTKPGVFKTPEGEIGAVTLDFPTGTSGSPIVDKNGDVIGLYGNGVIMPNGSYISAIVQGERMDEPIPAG
T1 sequence (Q9Q6P4 1428-1467): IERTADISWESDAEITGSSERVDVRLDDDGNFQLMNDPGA

Take `Oc1c(C(Nc2nccs2)c2ccccc2)ccc2cccnc12` (stereo not drawn) [compound 23]: the IC50 at WNV NS2B/NS3pro [1] is 9.85 ± 0.34 µM; at WNV NS2B/NS3pro [2] it was 12.9 ± 0.54 µM.

Take aprotinin: the “inhibition of WNV NS2B-NS3pro, positive control” value against WNV NS2B/NS3pro [3] is 100%.

The record behind these values is PMC3331929 (Antiviral Research, 2012).
